Source: patent US20090155318A1, “PROCESS TO FORM NANO-SIZED MATERIALS, THE COMPOSITIONS AND USES THEREOF” (priority 2006, published 2009)

Experiment: solubility (saturation concentration) of the salts in water versus temperature, FIG. 2
Assay type: physicochemical
Settings: at 0° C., aqueous, read from FIG. 2

saturation concentration in water: about 0.41 moles/100 g H2O
Structure (SMILES): [Cl-].[K+] [KCl]
